Source: patent publication US20130324576A1, “THERAPEUTIC COMPOUNDS” (Takeda Pharmaceutical Company Limited, priority 2012, published 2013)

Each compound was assayed against T1, human PKR1 receptors (Homo sapiens, UniProt Q8TCW9) (assay: PKR1 antagonist assay: block of PK1-mediated intracellular calcium release (FLIPR Tetra, Calcium 5 dye)). Conditions: RBL2H3 cells expressing human PKR1; 10 min pre-incubation, stimulation with PK1 at EC80; calcium fluorescence.
T1 construct: expressed in transfected cells; host or cells: RBL2H3 cells (rat basophilic leukaemia line) expressing human PKR1
T1 sequence (Q8TCW9 whole entry): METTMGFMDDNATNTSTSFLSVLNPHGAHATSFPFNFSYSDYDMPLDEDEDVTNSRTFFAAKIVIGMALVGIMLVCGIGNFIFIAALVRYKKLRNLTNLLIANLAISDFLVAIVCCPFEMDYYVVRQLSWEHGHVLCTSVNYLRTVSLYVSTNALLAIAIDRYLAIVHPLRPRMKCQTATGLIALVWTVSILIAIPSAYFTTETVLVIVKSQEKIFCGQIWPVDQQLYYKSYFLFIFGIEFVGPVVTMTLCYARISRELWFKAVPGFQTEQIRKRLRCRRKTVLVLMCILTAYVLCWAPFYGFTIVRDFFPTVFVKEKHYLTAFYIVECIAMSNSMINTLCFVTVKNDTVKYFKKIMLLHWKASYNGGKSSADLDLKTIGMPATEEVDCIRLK
Assay type: cell-based
Protocol: Prokineticin receptor 1 (PKR1) antagonists may be functionally assessed by measurement of change in intracellular calcium levels induced by Gq mediated increase in inositol triphosphate (IP3) levels. The ability of a compound to block the intracellular release of calcium mediated by PK1 in RBL2H3 cells expressing human PKR1 receptors is determined as a measure of the compound's antagonist activity in vitro.
Approximately 10,000 cells per assay well are seeded in normal culture medium in a 384 well plate (Corning). Twenty-four hours after seeding, the cells are loaded with a calcium sensitive fluorescent dye by replacing the culture medium with assay buffer (1× Hanks buffered saline, 25 mM HEPES, 0.1% w/v fatty acid free BSA (bovine serum albumin), pH 7.4) containing 1 mM probenecid and 1× Calcium 5 Reagent (Molecular Devices). Cells are incubated at 37° C. for 1 hour to allow for dye uptake.
To test for antagonist activity, test compounds at a final concentration range between 0.32 nM-10 μM (diluted in assay buffer) are added to the assay wells and allowed to incubate for 10 minutes prior to stimulation with PK1. After incubation with test compounds the assay plate is placed in a FLIPR Tetra (Molecular Devices) and PK1 (diluted in assay buffer) is added at the determined EC80 concentration (final). Ligand-dependent changes in intracellular calcium levels are determined by measuring changes in fluorescence of the dye at […] following excitation at 485 nm.
In the case of COc1cc(Cl)cnc1OC1CCN(S(=O)(=O)c2c(C)n[nH]c2C)CC1 [Example 85, 5-Chloro-2-((1-((3,5-dimethyl-1H-pyrazol-4-yl)sulfonyl)piperidin-4-yl)oxy)-3-methoxypyridine], the IC50 is reported as 1.23 µM. In the case of Cc1nn(C)c(C)c1S(=O)(=O)N1CCC(Oc2ncc(Cl)cc2F)CC1 [Example 77, 5-Chloro-3-fluoro-2-((1-((1,3,5-trimethyl-1H-pyrazol-4-yl)sulfonyl)piperidin-4-yl)oxy)pyridine], the IC50 is reported as 3.19 µM. Compound Cc1n[nH]c(C)c1S(=O)(=O)N1CCC(C(F)c2ccc(Cl)cc2)CC1 (stereo not shown) [Example 105, 4-((4-Chlorophenyl)fluoromethyl)-1-((3,5-dimethyl-1H-pyrazol-4-yl)sulfonyl)piperidine] has an IC50 of 0.41 µM. Work on Cc1nn(C)c(C)c1S(=O)(=O)N1CCC(Oc2ccc(Cl)cc2)C(C)C1 (stereo not shown) [Example 21, 4-(4-Chlorophenoxy)-3-methyl-1-[(1,3,5-trimethyl-1H-pyrazol-4-yl)sulfonyl]piperidine] yielded an IC50 of 2.1 µM. Cc1n[nH]c(C)c1S(=O)(=O)N1CCC(C(C)(O)c2ccc(Cl)cc2)CC1 (stereo not shown) [Example 101, 1-(4-Chlorophenyl)-1-(1-((3,5-dimethyl-1H-pyrazol-4-yl)sulfonyl)piperidin-4-yl)ethanol] gave an IC50 of 2.38 µM. Cc1n[nH]c(C)c1S(=O)(=O)N1CCC(C#N)(Cc2ccc(Cl)cc2)CC1 [Example 64, 4-(4-Chlorobenzyl)-1-((3,5-dimethyl-1H-pyrazol-4-yl)sulfonyl)piperidine-4-carbonitrile] was tested, and the IC50 was 0.89 µM. Work on Cc1cccc(C)c1OC1CCN(S(=O)(=O)c2c(C)n[nH]c2C)CC1 [Example 38, 1-(3,5-Dimethyl-1H-pyrazole-4-sulfonyl)-4-(2,6-dimethylphenoxy)piperidine] yielded an IC50 of 3.2 µM. Cc1nn(C)c(C)c1S(=O)(=O)N1CCC(O)(Cc2ccc(Cl)cc2Cl)CC1 [Example 59, 4-(2,4-Dichlorobenzyl)-1-((1,3,5-trimethyl-1H-pyrazol-4-yl)sulfonyl)piperidin-4-ol] was tested, and the IC50 was 2.4 µM. With COc1cc(Cl)ccc1CC1(OC)CCN(S(=O)(=O)c2c(C)nn(C)c2C)CC1 [Example 87, 4-(4-Chloro-2-methoxybenzyl)-4-methoxy-1-((1,3,5-trimethyl-1H-pyrazol-4-yl)sulfonyl)piperidine] the IC50 was 5.88 µM. For Cc1nn(C)c(C)c1S(=O)(=O)N1CCC(Cc2ccc(Cl)cc2F)CC1 [Example 83, 4-(4-Chloro-2-fluorobenzyl)-1-((1,3,5-trimethyl-1H-pyrazol-4-yl)sulfonyl)piperidine], the IC50 was 0.73 µM. In the case of COC(c1ccc(Cl)cc1)C1CCN(S(=O)(=O)c2c(C)nn(C)c2C)CC1 (stereo not shown) [Example 99, 4-((4-Chlorophenyl)(methoxy)methyl)-1-((1,3,5-trimethyl-1H-pyrazol-4-yl)sulfonyl)piperidine], the IC50 is reported as 0.06 µM. In the case of CCn1nc(C)c(S(=O)(=O)N2CCC(Oc3ccc(C)cc3)CC2)c1C [Example 9, 1-[(1-Ethyl-3,5-dimethyl-1H-pyrazol-4-yl)sulfonyl]-4-(4-methylphenoxy)piperidine], the IC50 is reported as 2.3 µM. Compound Cc1nn(C)c(C)c1S(=O)(=O)N1CCC(Oc2ccc(Cl)cc2Cl)CC1 [Example 13, 4-(2,4-Dichlorophenoxy)-1-[(1,3,5-trimethyl-1H-pyrazol-4-yl)sulfonyl]piperidine] has an IC50 of 0.79 µM. Compound Cc1nn(C(F)F)c(C)c1S(=O)(=O)N1CCC(Oc2ccc(Cl)cc2Cl)CC1 [Example 29] has an IC50 of 1.1 µM. Cc1nn(C)c(C)c1S(=O)(=O)N1CCC(Oc2ccc(Cl)cc2C#N)CC1 [Example 31, 5-Chloro-2-{[1-(trimethyl-1H-pyrazole-4-sulfonyl)piperidin-4-yl]oxy}benzonitrile] gave an IC50 of 0.31 µM. Compound Cc1n[nH]c(C)c1S(=O)(=O)N1CCC(Cc2ccc(Cl)cc2F)CC1 [Example 82, 4-(4-Chloro-2-fluorobenzyl)-1-((3,5-dimethyl-1H-pyrazol-4-yl)sulfonyl)piperidine] has an IC50 of 1.02 µM. Work on Cc1nn(C)c(C)c1S(=O)(=O)N1CCC(Oc2ccc(C(F)(F)F)cc2)CC1 [Example 12, 4-[4-(Trifluoromethyl)phenoxy]-1-[(1,3,5-trimethyl-1H-pyrazol-4-yl)sulfonyl]piperidine] yielded an IC50 of 4.7 µM. COC(c1ccc(Cl)cc1)C1CCN(S(=O)(=O)c2c(C)n[nH]c2C)CC1 (single isomer, unassigned) [Example 97, 4-((4-Chlorophenyl)(methoxy)methyl)-1-((3,5-dimethyl-1H-pyrazol-4-yl)sulfonyl)piperidine] was tested, and the IC50 was 4.62 µM. For CCOC(=O)C1(Cc2ccc(Br)cc2)CCN(S(=O)(=O)c2c(C)nn(C)c2C)CC1 [Example 63, Ethyl 4-(4-bromobenzyl)-1-((1,3,5-trimethyl-1H-pyrazol-4-yl)sulfonyl)piperidine-4-carboxylate], the IC50 was 0.64 µM. In the case of Cc1nn(C)c(Cl)c1S(=O)(=O)N1CCC(Oc2ccc(Cl)cc2)CC1 [Example 15, 1-[(5-Chloro-1,3-dimethyl-1H-pyrazol-4-yl)sulfonyl]-4-(4-chlorophenoxy)piperidine], the IC50 is reported as 2.9 µM. With Cc1nn(C)c(C)c1S(=O)(=O)N1CCC(Oc2ccc(C#N)cc2)CC1 [Example 7, 4-({1-[(1,3,5-Trimethyl-1H-pyrazol-4-yl)sulfonyl]piperidin-4-yl}oxy)benzonitrile] the IC50 was 7.3 µM. Cc1n[nH]c(C)c1S(=O)(=O)N1CCC(F)(Cc2ccc(Cl)cc2F)CC1 [Example 80, 4-(4-Chloro-2-fluorobenzyl)-1-((3,5-dimethyl-1H-pyrazol-4-yl)sulfonyl)-4-fluoropiperidine] showed an IC50 of 0.81 µM. In the case of Cc1n[nH]c(C)c1S(=O)(=O)N1CCC(Oc2ccc(Cl)cc2F)CC1 [Example 35, 4-(4-Chloro-2-fluorophenoxy)-1-(3,5-dimethyl-1H-pyrazole-4-sulfonyl)piperidine], the IC50 is reported as 1.1 µM. In the case of COc1cc(Cl)ccc1CC1(F)CCN(S(=O)(=O)c2c(C)nn(C)c2C)CC1 [Example 91, 4-(4-Chloro-2-methoxybenzyl)-4-fluoro-1-((1,3,5-trimethyl-1H-pyrazol-4-yl)sulfonyl)piperidine], the IC50 is reported as 0.14 µM. COc1ccc(OC2CCN(S(=O)(=O)c3c(C)nn(C)c3C)CC2)cc1F [Example 43, 4-(3-Fluoro-4-methoxyphenoxy)-1-(trimethyl-1H-pyrazole-4-sulfonyl)piperidine] was tested, and the IC50 was 6.3 µM. Cc1nn(C)c(C)c1S(=O)(=O)N1CCC(Oc2ccc(Cl)c(Cl)c2)CC1 [Example 1, 4-(3,4-Dichlorophenoxy)-1-((1,3,5-trimethyl-1H-pyrazol-4-yl)sulfonyl)piperidine] was tested, and the IC50 was 1.4 µM. Compound Cc1nn(C)c(C)c1S(=O)(=O)N1CCC(Oc2ccc(Cl)cc2C(F)(F)F)CC1 [Example 39, 4-[4-Chloro-2-(trifluoromethyl)phenoxy]-1-(trimethyl-1H-pyrazole-4-sulfonyl)piperidine] has an IC50 of 0.21 µM. Compound CCc1n[nH]c(CC)c1S(=O)(=O)N1CCC(Cc2ccc(Cl)cc2)CC1 [Example 66, 4-(4-Chlorobenzyl)-1-((3,5-diethyl-1H-pyrazol-4-yl)sulfonyl)piperidine] has an IC50 of 1.01 µM. Work on Cc1n[nH]c(C)c1S(=O)(=O)N1CCC(C(F)c2ccc(Cl)cc2)CC1 (single isomer, unassigned) [Example 106, 4-((4-Chlorophenyl)fluoromethyl)-1-((3,5-dimethyl-1H-pyrazol-4-yl)sulfonyl)piperidine] yielded an IC50 of 4 µM. COC(c1ccc(Cl)cc1)C1CCN(S(=O)(=O)c2c(C)n[nH]c2C)CC1 (single isomer, unassigned) [Example 98, 4-((4-Chlorophenyl)(methoxy)methyl)-1-((3,5-dimethyl-1H-pyrazol-4-yl)sulfonyl)piperidine] gave an IC50 of 0.16 µM. Work on Cc1nn(C)c(C)c1S(=O)(=O)N1CCC(C(=O)c2ccc(Cl)cc2)CC1 [Example 49, (4-Chlorophenyl)(1-((1,3,5-trimethyl-1H-pyrazol-4-yl)sulfonyl)piperidin-4-yl)methanone] yielded an IC50 of 1 µM. Compound Cc1ccc(OC2CCN(S(=O)(=O)c3c(C)nn(C)c3Cl)CC2)cc1 [Example 11, 1-[(5-Chloro-1,3-dimethyl-1H-pyrazol-4-yl)sulfonyl]-4-(4-methylphenoxy)piperidine] has an IC50 of 0.86 µM. Work on Cc1n[nH]c(C)c1S(=O)(=O)N1CCC(Oc2ccc(Cl)cc2C#N)CC1 [Example 34, 5-Chloro-2-{[1-(3,5-dimethyl-1H-pyrazole-4-sulfonyl)piperidin-4-yl]oxy}benzonitrile] yielded an IC50 of 0.24 µM. For COc1ccc(OC2CCN(S(=O)(=O)c3c(C)nn(C)c3C)CC2)cc1 [Example 18, 4-(4-Methoxyphenoxy)-1-[(1,3,5-trimethyl-1H-pyrazol-4-yl)sulfonyl]piperidine], the IC50 was 7 µM. For COc1cc(Cl)ccc1OC1CCN(S(=O)(=O)c2c(C)nn(C)c2C)CC1 [Example 74, 4-(4-Chloro-2-methoxyphenoxy)-1-((1,3,5-trimethyl-1H-pyrazol-4-yl)sulfonyl)piperidine], the IC50 was 0.17 µM. Cc1n[nH]c(C)c1S(=O)(=O)N1CCC(O)(Cc2ccc(Cl)c(Cl)c2)CC1 [Example 70, 4-(3,4-Dichlorobenzyl)-1-((3,5-dimethyl-1H-pyrazol-4-yl)sulfonyl)piperidin-4-ol] showed an IC50 of 8.62 µM. Cc1nn(C)c(C)c1S(=O)(=O)N1CCC(Oc2ccc(F)cc2)CC1 [Example 20, 4-(4-Fluorophenoxy)-1-[(1,3,5-trimethyl-1H-pyrazol-4-yl)sulfonyl]piperidine] gave an IC50 of 3.6 µM.
